Measured values taken from the supplement of paper PMC10307832.

What was measured:
Test in all cases: relative viability (nuclei count vs DMSO), 5 days (fraction); higher = more cells survive
[1] = tested on: A549
In short: (§1)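 The day after seeding in 1536-well plates, lung cancer cell lines were treated by pin tool with a single drug, or with a fixed anchor-drug dose together with five library-drug doses (not always all listed) in √10 steps. After 5 days, a combined fix-and-stain solution (final 0.05% Triton X-100, 1% formaldehyde, 1 ug/ml Hoechst) was added. Nuclei counted on 4× images gave relative viability as treated counts over vehicle counts, reported as the median of duplicate plates.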

[2] = tested on: COR-L 105
In short: as §1

[3] = tested on: Calu-6
In short: as §1

[4] = tested on: EBC-1
In short: as §1

[5] = tested on: IA-LM
In short: as §1

[6] = tested on: LCLC-103H
In short: as §1

[7] = tested on: LK-2
In short: as §1

[8] = tested on: NCI-H1299
In short: as §1

[9] = tested on: NCI-H1355
In short: as §1

[10] = tested on: NCI-H1703
In short: as §1

[11] = tested on: NCI-H520
In short: as §1

CCN(CC)CCCCNc1ncc2cc(-c3cc(OC)cc(OC)c3)c(NC(=O)NC(C)(C)C)nc2n1 + C[C@@H](Oc1cc(-c2cnn(C3CCNCC3)c2)cnc1N)c1c(Cl)ccc(F)c1Cl [Crizotinib] (partner 1 µM)
relative viability ([1]; first compound 0.01 µM): 0.782 | relative viability ([1]; first compound 0.03162 µM): 0.854 | relative viability ([1]; first compound 0.1 µM): 0.961 | relative viability ([1]; first compound 0.3162 µM): 0.805 | relative viability ([1]; first compound 1 µM): 0.655 | relative viability ([2]; first compound 0.01 µM): 0.795 | relative viability ([2]; first compound 0.03162 µM): 0.796 | relative viability ([2]; first compound 0.1 µM): 0.887 | relative viability ([2]; first compound 0.3162 µM): 0.777 | relative viability ([2]; first compound 1 µM): 0.658 | relative viability ([3]; first compound 0.01 µM): 0.943 | relative viability ([3]; first compound 0.03162 µM): 0.784 | relative viability ([3]; first compound 0.1 µM): 0.899 | relative viability ([3]; first compound 0.3162 µM): 1.02 | relative viability ([3]; first compound 1 µM): 0.712 | relative viability ([4]; first compound 0.01 µM): 0.209 | relative viability ([4]; first compound 0.03162 µM): 0.189 | relative viability ([4]; first compound 0.1 µM): 0.242 | relative viability ([4]; first compound 0.3162 µM): 0.213 | relative viability ([4]; first compound 1 µM): 0.187 | relative viability ([5]; first compound 0.01 µM): 0.766 | relative viability ([5]; first compound 0.03162 µM): 0.629 | relative viability ([5]; first compound 0.1 µM): 1.02 | relative viability ([5]; first compound 0.3162 µM): 0.97 | relative viability ([5]; first compound 1 µM): 0.932 | relative viability ([6]; first compound 0.01 µM): 1.11 | relative viability ([6]; first compound 0.03162 µM): 1.04 | relative viability ([6]; first compound 0.1 µM): 1.07 | relative viability ([6]; first compound 0.3162 µM): 1.05 | relative viability ([6]; first compound 1 µM): 1.05 | relative viability ([7]; first compound 0.01 µM): 0.235 | relative viability ([7]; first compound 0.03162 µM): 0.25 | relative viability ([7]; first compound 0.1 µM): 0.231 | relative viability ([7]; first compound 0.3162 µM): 0.246 | relative viability ([7]; first compound 1 µM): 0.258 | relative viability ([8]; first compound 0.01 µM): 1 | relative viability ([8]; first compound 0.03162 µM): 0.912 | relative viability ([8]; first compound 0.1 µM): 1.02 | relative viability ([8]; first compound 0.3162 µM): 0.972 | relative viability ([8]; first compound 1 µM): 0.89 | relative viability ([9]; first compound 0.01 µM): 1.17 | relative viability ([9]; first compound 0.03162 µM): 1.16 | relative viability ([9]; first compound 0.1 µM): 1.05 | relative viability ([9]; first compound 0.3162 µM): 1.11 | relative viability ([9]; first compound 1 µM): 1.06 | relative viability ([10]; first compound 0.01 µM): 0.495 | relative viability ([10]; first compound 0.03162 µM): 0.584 | relative viability ([10]; first compound 0.1 µM): 0.986 | relative viability ([10]; first compound 0.3162 µM): 0.586 | relative viability ([10]; first compound 1 µM): 0.799 | relative viability ([11]; first compound 0.01 µM): 0.901 | relative viability ([11]; first compound 0.03162 µM): 0.825 | relative viability ([11]; first compound 0.1 µM): 0.86 | relative viability ([11]; first compound 0.3162 µM): 0.61 | relative viability ([11]; first compound 1 µM): 0.297

COc1nc(C)cnc1NS(=O)(=O)c1cccnc1-c1ccc(-c2nnco2)cc1 [Zibotentan] + C[C@]1(O)C[C@@H](c2nc(-c3ccc4ccc(-c5ccccc5)nc4c3)c3c(N)nccn32)C1 [Linsitinib] (partner 1 µM)
relative viability ([1]; first compound 0.08 µM): 0.578 | relative viability ([1]; first compound 0.253 µM): 0.539 | relative viability ([1]; first compound 0.8 µM): 0.589 | relative viability ([1]; first compound 2.53 µM): 0.642 | relative viability ([2]; first compound 0.08 µM): 1.02 | relative viability ([2]; first compound 0.253 µM): 0.871 | relative viability ([2]; first compound 0.8 µM): 0.986 | relative viability ([2]; first compound 2.53 µM): 0.919 | relative viability ([3]; first compound 0.08 µM): 0.996 | relative viability ([3]; first compound 0.253 µM): 0.885 | relative viability ([3]; first compound 0.8 µM): 0.966 | relative viability ([3]; first compound 2.53 µM): 0.922 | relative viability ([4]; first compound 0.08 µM): 0.816 | relative viability ([4]; first compound 0.253 µM): 0.986 | relative viability ([4]; first compound 0.8 µM): 0.934 | relative viability ([4]; first compound 2.53 µM): 0.915 | relative viability ([5]; first compound 0.08 µM): 0.627 | relative viability ([5]; first compound 0.253 µM): 0.743 | relative viability ([5]; first compound 0.8 µM): 0.778 | relative viability ([5]; first compound 2.53 µM): 0.456 | relative viability ([6]; first compound 0.08 µM): 1.09 | relative viability ([6]; first compound 0.253 µM): 0.951 | relative viability ([6]; first compound 0.8 µM): 1.06 | relative viability ([6]; first compound 2.53 µM): 1.2 | relative viability ([7]; first compound 0.08 µM): 0.709 | relative viability ([7]; first compound 0.253 µM): 0.535 | relative viability ([7]; first compound 2.53 µM): 0.701 | relative viability ([8]; first compound 0.08 µM): 0.938 | relative viability ([8]; first compound 0.253 µM): 1.01 | relative viability ([8]; first compound 0.8 µM): 0.984 | relative viability ([8]; first compound 2.53 µM): 0.987 | relative viability ([9]; first compound 0.08 µM): 0.812 | relative viability ([9]; first compound 0.253 µM): 0.818 | relative viability ([9]; first compound 0.8 µM): 0.824 | relative viability ([9]; first compound 2.53 µM): 0.909 | relative viability ([10]; first compound 0.08 µM): 0.655 | relative viability ([10]; first compound 0.253 µM): 0.718 | relative viability ([10]; first compound 0.8 µM): 0.865 | relative viability ([10]; first compound 2.53 µM): 0.167 | relative viability ([11]; first compound 0.08 µM): 1.05 | relative viability ([11]; first compound 0.253 µM): 0.892 | relative viability ([11]; first compound 0.8 µM): 0.904 | relative viability ([11]; first compound 2.53 µM): 1.02
